Patent US8901118B2, “Compounds and methods for kinase modulation, and indications therefor” (Plexxikon Inc., priority 2010, dated 2014)

Assays:
[1] = target: T1, BCR-FMS BaF3 cells (Homo sapiens, UniProt P07333); assay: BaF3 BCR-FMS cell proliferation assay (ATPlite); assay type: cell-based; details: read-out: Inhibition of Cell Proliferation IC50, BCR/BaF3 Fms
T1 construct: fused on or other part: P11274 (Breakpoint cluster region protein)
T1 sequence (P07333 582-910): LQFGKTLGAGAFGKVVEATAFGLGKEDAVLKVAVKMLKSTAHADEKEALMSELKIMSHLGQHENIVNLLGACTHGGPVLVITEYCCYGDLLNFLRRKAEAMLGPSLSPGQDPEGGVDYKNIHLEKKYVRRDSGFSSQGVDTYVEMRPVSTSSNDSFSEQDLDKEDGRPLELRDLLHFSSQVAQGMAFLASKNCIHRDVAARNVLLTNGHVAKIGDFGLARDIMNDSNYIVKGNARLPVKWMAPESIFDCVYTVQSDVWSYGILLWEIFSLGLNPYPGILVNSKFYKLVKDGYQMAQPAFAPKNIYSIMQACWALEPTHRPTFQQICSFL
Method: (§1) Compounds are assessed in a variety of cell based assays. For example BaF3 cells engineered with any of BCR-FMS, BCR-KIT, BCR-FLT3, BCR-NTRK1, BCR-NTRK2, and BCR-NTRK3, are used in cell proliferation assays to assess inhibitory activity of Fms, Kit, Flt-3, TrkA, TrkB, and TrkC, respectively. An MV-4-11 (leukemia) cell proliferation assay is used to assess inhibitory activity in Flt-3, and SKNSH (human neuroblastoma) cell proliferation assay is used to assess efficacy of Fms/Trk inhibitors. Additional cells may be assayed similarly to assess the efficacy of Fms/Trk inhibitors, such as MiaPaCa (human pancreatic cancer) and Capan-1 (human pancreatic carcinoma) cells. Reagent and assay conditions are as follows: • BaF3 cells: • Maintained in RPMI containing 10% FBS, 1% PenStrep, 1% NEAA, and 1% L-Glutamine, supplemented with 1 mg/mL G418 and 5% WEHI-CM (or recombinant murine IL-3). • Confluent cells are split 1:50 to 1:100 every 3-4 days. • MV-4-11 cells: • Maintained in Iscove's Modified Dulbecco's Medium containing 10% FBS. • Confluent cells are split 1:4 every 3-4 days. • SKNSH cells: RPMI containing 10% FBS. On day 1, cells are counted, then centrifuged in a conical tube for 5 minutes at 1000 rpm. The supernatant is removed and cells are re-suspended as follows: • BaF3: resuspend in growth media +1 mg/mL G418 (without WEHFIL-3) to 2×10^5 cells/mL. • MV-4-11: resuspend in growth media to 5×10^5 cells/mL. • SKNSH: resuspend in growth media to 2×10^4 cells/mL. The cells are plated (50 μL, 150 μL for SKNSH cells) in each well of a 96-well dish (Corning 3610) and incubated at 37° C. in 5% CO2 overnight, cells plated to a final concentration of cells as follows: • BaF3: 10,000 cells per well. • MV-4-11: 25,000 cells per well. • SKNSH: 3,000 cells per well. On day 2, compound at a maximum concentration of 5 mM is serially diluted 1:3 for a total of 8 point titration with DMSO as a control. A 1 μL aliquot of each dilution point is added to 249 μL growth media and 50 μL is added to a well containing cells, providing 10 μM compound for the maximum concentration point. The cells are incubated for 3 days at 37° C. in 5% CO2. For SKNSH cells, a 0.75 μL aliquot of appropriate dilution in DMSO is added to 150 μL of cells. On day 5, ATPlite 1 step Luminescence Assay System (Perkin Elmer #6016739) is brought to room temperature along with the cell cultures. ATPlite is added to each well as follows: • BaF3: 25 μL per well. • MV-4-11: 40 μL per well. • SKNSH: 20 μL per well. The cells are incubated at room temperature for 10 minutes, then luminescence is read on Safire reader. The measured luminescence correlates directly with cell number, such that the reading as a function of compound concentration is used to determine the IC50 value.
(§2) It is understood that the results of these assays may vary as assay conditions are varied. Inhibition levels determined under the conditions described herein represent a relative activity for the compounds tested under the specific conditions employed. The cell based assays are likely to show variability due to the complexity of the system and the sensitivity thereof to any changes in the assay conditions. […] Results for compounds that are tested and show substantially no inhibition below the highest tested concentration are represented as “-” in the tables below. In some instances, the compounds were not tested in all of the assays, or assay results were not valid, as indicated by NA in the tables below.

[2] = target: T2, BCR-NTRK1 BaF3 cells (Homo sapiens, UniProt P04629); assay: BaF3 BCR-NTRK1 cell proliferation assay (ATPlite); assay type: cell-based; details: read-out: Inhibition of Cell Proliferation IC50, BCR/BaF3 TrkA
T2 construct: fused on or other part: P11274 (Breakpoint cluster region protein)
T2 sequence (P04629 510-781): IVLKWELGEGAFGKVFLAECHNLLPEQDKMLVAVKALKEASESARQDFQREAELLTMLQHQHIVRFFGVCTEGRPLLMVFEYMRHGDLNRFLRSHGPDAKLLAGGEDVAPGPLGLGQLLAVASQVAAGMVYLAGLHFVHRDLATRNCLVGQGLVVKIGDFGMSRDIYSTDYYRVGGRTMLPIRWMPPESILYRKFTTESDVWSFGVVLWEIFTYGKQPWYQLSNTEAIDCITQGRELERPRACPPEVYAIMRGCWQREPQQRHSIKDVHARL
Method: as §1, §2

[3] = target: T3, BCR-NTRK2 BaF3 cells (Homo sapiens, UniProt Q16620); assay: BaF3 BCR-NTRK2 cell proliferation assay (ATPlite); assay type: cell-based; details: read-out: Inhibition of Cell Proliferation IC50, BCR/BaF3 TrkB
T3 construct: fused on or other part: P11274 (Breakpoint cluster region protein)
T3 sequence (Q16620 538-807): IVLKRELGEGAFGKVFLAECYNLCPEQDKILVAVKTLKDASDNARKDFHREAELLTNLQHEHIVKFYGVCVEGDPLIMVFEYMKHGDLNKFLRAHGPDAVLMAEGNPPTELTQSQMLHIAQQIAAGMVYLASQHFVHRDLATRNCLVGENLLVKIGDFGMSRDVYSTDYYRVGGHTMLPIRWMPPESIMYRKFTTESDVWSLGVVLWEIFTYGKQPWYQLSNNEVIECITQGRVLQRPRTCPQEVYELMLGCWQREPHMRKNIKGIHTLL
Method: as §1, §2

[4] = target: CYP2C19 (Homo sapiens, UniProt P33261); assay: CYP2C19 inhibition (fluorescent substrate CEC); assay type: in vitro ADME; details: read-out: Cyp IC50 2C19
Sequence of CYP2C19 (P33261 whole entry): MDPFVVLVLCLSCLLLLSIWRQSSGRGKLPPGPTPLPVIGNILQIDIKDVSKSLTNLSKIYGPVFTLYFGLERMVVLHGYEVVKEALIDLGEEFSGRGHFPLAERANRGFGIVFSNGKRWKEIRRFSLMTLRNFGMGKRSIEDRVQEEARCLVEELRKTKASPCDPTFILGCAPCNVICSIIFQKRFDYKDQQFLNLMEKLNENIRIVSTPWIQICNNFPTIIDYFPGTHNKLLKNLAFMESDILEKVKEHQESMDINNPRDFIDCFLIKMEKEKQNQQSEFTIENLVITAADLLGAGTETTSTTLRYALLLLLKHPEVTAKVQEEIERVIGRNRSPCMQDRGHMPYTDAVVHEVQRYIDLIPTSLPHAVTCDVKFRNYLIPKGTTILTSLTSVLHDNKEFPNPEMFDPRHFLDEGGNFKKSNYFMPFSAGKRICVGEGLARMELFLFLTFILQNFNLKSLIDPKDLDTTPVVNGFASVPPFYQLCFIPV
Method: (§3) CYP (Cytochrome P450) enzymes are the major drug metabolizing enzymes present in the liver. The inhibition of CYP enzyme activity (IC50) for each of CYP1A2, CYP2C19, CYP2C9, CYP2D6, CYP3A4(BFC) and CYP3A4(BQ) is determined for compounds, where inhibition of metabolism of a known substrate leads to a decrease in the fluorescence of the metabolized product. The fluorescence of the product is monitored as a function of compound concentration. Compounds are dissolved in DMSO to a concentration of 100 mM. These are diluted 1 μL into 82 μL of acetonitrile. An 11 μL aliquot of this solution is then added to 204 μL of cofactor mix (1.3% NADPH Regeneration system Solution A, 1.04% NADPH Regeneration system Solution B from BD Biosciences, 5% acetonitrile and 0.05% DMSO). These are then serially diluted 1:1 (160 μL to 160 μL co-factor mix) for a total of 10 points. A 10 μL aliquot of this final mixture is dispensed into 384 well assay plates and incubated for 10 minutes at 37° C. […] Assay plates are incubated at 37° C. (CYP1A2-15 min; CYP2C9-45 min; CYP2C19, 2D6 and 3A4-30 min) and read in a Tecan Safire 2 plate reader (CYP1A2, 2C19 and 3A4 409 ex/460 em; CYP2C9 and 2D6 409 ex/530 em). The signal versus compound concentration is used to determine the IC50. The enzymes and substrates for this assay are obtained from BD Biosciences.

[5] = target: CYP3A4(BFC) (Homo sapiens, UniProt P08684); assay: CYP3A4(BFC) inhibition; assay type: in vitro ADME; details: CYP3A4, substrate BFC; read-out: Cyp IC50 3A4(BFC)
Sequence of CYP3A4(BFC) (P08684 whole entry): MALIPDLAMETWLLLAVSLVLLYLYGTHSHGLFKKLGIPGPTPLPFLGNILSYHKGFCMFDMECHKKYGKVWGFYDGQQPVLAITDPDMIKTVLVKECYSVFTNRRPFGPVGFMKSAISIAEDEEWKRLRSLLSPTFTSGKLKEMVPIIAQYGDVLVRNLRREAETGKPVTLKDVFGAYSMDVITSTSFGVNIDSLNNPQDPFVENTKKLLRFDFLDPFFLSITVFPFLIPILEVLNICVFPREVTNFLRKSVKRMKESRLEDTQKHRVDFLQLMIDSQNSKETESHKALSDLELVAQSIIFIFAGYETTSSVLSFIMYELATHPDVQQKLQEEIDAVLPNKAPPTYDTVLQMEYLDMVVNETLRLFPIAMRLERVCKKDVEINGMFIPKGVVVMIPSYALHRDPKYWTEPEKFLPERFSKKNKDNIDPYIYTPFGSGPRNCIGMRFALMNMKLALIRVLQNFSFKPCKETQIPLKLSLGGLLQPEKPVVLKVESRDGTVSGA
Method: as §3

Structure (SMILES)	IC50 [1] [nM]	IC50 [2] [nM]	IC50 [3] [nM]	IC50 [4] [µM]	IC50 [5] [µM]
COc1ccc(Nc2ccc(C(=O)c3c[nH]c4ncnc(N[C@@H](C)c5ccc(F)cc5)c34)c(F)n2)cn1 [Compound P-4072, [2-fluoro-6-[(6-methoxy-3-pyridyl)amino]-3-pyridyl]-[4-[[(1S)-1-(4-fluorophenyl)ethyl]amino]-7H-pyrrolo[2,3-d]pyrimidin-5-yl]methanone]	< 100	< 10	< 10	< 10	> 10
COc1ccc(Nc2ccc(C(=O)c3c[nH]c4ncnc(NCC5CCCO5)c34)c(F)n2)cn1 (centres unmarked) [Compound P-4073, [2-fluoro-6-[(6-methoxy-3-pyridyl)amino]-3-pyridyl]-[4-(tetrahydrofuran-2-ylmethylamino)-7H-pyrrolo[2,3-d]pyrimidin-5-yl]methanone]	< 100	< 100	< 10	5 to 10	> 10
CCN1CCC(Nc2ncnc3[nH]cc(C(=O)c4ccc(Nc5ccc(OC)nc5)nc4F)c23)CC1 [Compound P-4074, [4-[(1-ethyl-4-piperidyl)amino]-7H-pyrrolo[2,3-d]pyrimidin-5-yl]-[2-fluoro-6-[(6-methoxy-3-pyridyl)amino]-3-pyridyl]methanone]	< 1000	< 100	< 100	5 to 10	> 10
COc1ccc(Nc2ccc(C(=O)c3c[nH]c4ncnc(NC5CCCC5)c34)c(F)n2)cn1 [Compound P-4075, [4-(cyclopentylamino)-7H-pyrrolo[2,3-d]pyrimidin-5-yl]-[2-fluoro-6-[(6-methoxy-3-pyridyl)amino]-3-pyridyl]methanone]	< 10	< 10	< 10	5 to 10	> 10
COc1ccc(Nc2ccc(C(=O)c3c[nH]c4ncnc(NC5CCC5)c34)c(F)n2)cn1 [Compound P-4076, [4-(cyclobutylamino)-7H-pyrrolo[2,3-d]pyrimidin-5-yl]-[2-fluoro-6-[(6-methoxy-3-pyridyl)amino]-3-pyridyl]methanone]	< 100	< 10	< 10	5 to 10	> 10
CCC(CC)Nc1ncnc2[nH]cc(C(=O)c3ccc(Nc4ccc(OC)nc4)nc3F)c12 [Compound P-4077, [4-(1-ethylpropylamino)-7H-pyrrolo[2,3-d]pyrimidin-5-yl]-[2-fluoro-6-[(6-methoxy-3-pyridyl)amino]-3-pyridyl]methanone]	< 10	< 10	< 10	5 to 10	> 10
CCC(C)Nc1ncnc2[nH]cc(C(=O)c3ccc(Nc4ccc(OC)nc4)nc3F)c12 (centres unmarked) [Compound P-4078, [2-fluoro-6-[(6-methoxy-3-pyridyl)amino]-3-pyridyl]-[4-(sec-butylamino)-7H-pyrrolo[2,3-d]pyrimidin-5-yl]methanone]	< 10	< 10	< 10	> 10	> 10
COCCCNc1ncnc2[nH]cc(C(=O)c3ccc(Nc4ccc(OC)nc4)nc3F)c12 [Compound P-4079, [2-fluoro-6-[(6-methoxy-3-pyridyl)amino]-3-pyridyl]-[4-(3-methoxypropylamino)-7H-pyrrolo[2,3-d]pyrimidin-5-yl]methanone]	< 100	< 10	< 10	5 to 10	> 10
CCCCNc1ncnc2[nH]cc(C(=O)c3ccc(Nc4ccc(OC)nc4)nc3F)c12 [Compound P-4080, [4-(butylamino)-7H-pyrrolo[2,3-d]pyrimidin-5-yl]-[2-fluoro-6-[(6-methoxy-3-pyridyl)amino]-3-pyridyl]methanone]	< 100	< 10	< 10	> 10	> 10
CCNc1ncnc2[nH]cc(C(=O)c3ccc(Nc4ccc(OC)nc4)nc3F)c12 [Compound P-4081, [4-(ethylamino)-7H-pyrrolo[2,3-d]pyrimidin-5-yl]-[2-fluoro-6-[(6-methoxy-3-pyridyl)amino]-3-pyridyl]methanone]	< 10	< 10	< 10	> 10	> 10
COc1ccc(Nc2ccc(C(=O)c3c[nH]c4ncnc(NC5CCCCC5)c34)c(F)n2)cn1 [Compound P-4082, [4-(cyclohexylamino)-7H-pyrrolo[2,3-d]pyrimidin-5-yl]-[2-fluoro-6-[(6-methoxy-3-pyridyl)amino]-3-pyridyl]methanone]	< 10	< 10	< 10	> 10	> 10
CNc1ncnc2[nH]cc(C(=O)c3ccc(Nc4ccc(OC)nc4)nc3F)c12 [Compound P-4083, [2-fluoro-6-[(6-methoxy-3-pyridyl)amino]-3-pyridyl]-[4-(methylamino)-7H-pyrrolo[2,3-d]pyrimidin-5-yl]methanone]	< 100	< 10	< 10	> 10	> 10
COc1ccc(Nc2ccc(C(=O)c3c[nH]c4ncnc(NCC(F)(F)F)c34)c(F)n2)cn1 [Compound P-4084, [2-fluoro-6-[(6-methoxy-3-pyridyl)amino]-3-pyridyl]-[4-(2,2,2-trifluoroethylamino)-7H-pyrrolo[2,3-d]pyrimidin-5-yl]methanone]	< 10	< 100	< 10	5 to 10	> 10
